Assay results reported in ChEMBL document CHEMBL1201862, “PubChem BioAssay data set” (2004).
Counter-ions that a name gives are not always drawn. Active and inactive are the calls of the source.

Key:
[1] = biological target: T1, Aminopeptidase N (Plasmodium falciparum FcB1/Columbia, UniProt O96935); test: malaria alanyl aminopeptidase activity blockers – biochemical, fluorogenic H-Leu-NHMec substrate, 1536-well (AID 1445); set-up: species or system Plasmodium falciparum 3D7, 3D7
T1 sequence (O96935 whole entry): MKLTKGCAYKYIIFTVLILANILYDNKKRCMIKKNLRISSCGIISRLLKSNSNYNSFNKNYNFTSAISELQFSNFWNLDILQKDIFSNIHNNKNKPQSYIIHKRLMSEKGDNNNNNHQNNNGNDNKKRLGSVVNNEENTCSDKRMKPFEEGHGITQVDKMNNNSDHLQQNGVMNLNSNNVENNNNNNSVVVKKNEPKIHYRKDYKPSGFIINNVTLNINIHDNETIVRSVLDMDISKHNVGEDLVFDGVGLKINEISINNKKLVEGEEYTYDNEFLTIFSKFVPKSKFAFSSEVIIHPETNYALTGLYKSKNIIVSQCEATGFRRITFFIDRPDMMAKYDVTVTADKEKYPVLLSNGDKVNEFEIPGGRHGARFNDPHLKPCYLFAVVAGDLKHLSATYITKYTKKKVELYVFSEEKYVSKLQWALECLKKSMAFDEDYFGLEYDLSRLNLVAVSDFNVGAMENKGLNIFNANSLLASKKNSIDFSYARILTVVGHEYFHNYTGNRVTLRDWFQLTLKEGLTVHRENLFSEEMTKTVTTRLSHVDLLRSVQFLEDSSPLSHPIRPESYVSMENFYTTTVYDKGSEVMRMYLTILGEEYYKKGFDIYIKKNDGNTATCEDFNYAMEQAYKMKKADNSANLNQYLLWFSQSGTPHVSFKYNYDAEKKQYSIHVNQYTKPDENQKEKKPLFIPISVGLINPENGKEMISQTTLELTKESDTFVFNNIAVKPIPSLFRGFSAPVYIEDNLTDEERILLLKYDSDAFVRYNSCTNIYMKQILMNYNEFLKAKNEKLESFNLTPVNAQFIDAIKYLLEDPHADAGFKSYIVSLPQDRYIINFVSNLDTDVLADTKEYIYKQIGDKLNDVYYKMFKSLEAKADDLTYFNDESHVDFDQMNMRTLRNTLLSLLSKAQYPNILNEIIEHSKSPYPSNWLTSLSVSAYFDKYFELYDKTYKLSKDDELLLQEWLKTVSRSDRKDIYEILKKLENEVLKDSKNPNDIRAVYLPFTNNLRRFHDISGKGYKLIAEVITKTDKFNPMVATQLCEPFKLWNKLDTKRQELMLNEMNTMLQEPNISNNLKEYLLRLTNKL

[2] = biological target: Large T antigen (Simian virus 40, UniProt P03070); type: functional, Betapolyomavirus macacae;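 further: Confirmatory-stage PubChem screen for compounds that inhibit SV40 T antigen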
Sequence of Large T antigen (P03070 whole entry): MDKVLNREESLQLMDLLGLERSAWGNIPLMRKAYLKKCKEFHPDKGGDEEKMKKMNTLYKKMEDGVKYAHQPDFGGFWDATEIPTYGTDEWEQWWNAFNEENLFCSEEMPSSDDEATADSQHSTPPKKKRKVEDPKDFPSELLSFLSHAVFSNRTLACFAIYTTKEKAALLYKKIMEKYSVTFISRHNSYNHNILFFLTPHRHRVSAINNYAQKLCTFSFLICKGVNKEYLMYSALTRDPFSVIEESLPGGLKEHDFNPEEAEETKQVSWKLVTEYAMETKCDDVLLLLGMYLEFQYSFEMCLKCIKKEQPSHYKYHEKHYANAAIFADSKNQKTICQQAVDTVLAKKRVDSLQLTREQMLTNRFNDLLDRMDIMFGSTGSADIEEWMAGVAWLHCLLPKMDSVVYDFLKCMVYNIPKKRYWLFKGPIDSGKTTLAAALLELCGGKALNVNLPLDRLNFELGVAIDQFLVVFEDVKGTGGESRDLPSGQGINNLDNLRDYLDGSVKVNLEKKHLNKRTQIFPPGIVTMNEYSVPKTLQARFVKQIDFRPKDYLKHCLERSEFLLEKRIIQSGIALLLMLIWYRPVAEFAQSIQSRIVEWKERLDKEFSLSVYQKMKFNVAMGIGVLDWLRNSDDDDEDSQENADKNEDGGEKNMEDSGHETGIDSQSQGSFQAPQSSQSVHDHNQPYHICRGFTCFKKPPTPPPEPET

[3] = biological target: Bifunctional protein GlmU (Mycobacterium tuberculosis, UniProt P9WMN3); test: Inhibitors of Mycobacterial Glucosamine-1-phosphate acetyl transferase (GlmU). Secondary screen.; set-up: species or system Mycobacterium tuberculosis H37Rv
Sequence of Bifunctional protein GlmU (P9WMN3 whole entry): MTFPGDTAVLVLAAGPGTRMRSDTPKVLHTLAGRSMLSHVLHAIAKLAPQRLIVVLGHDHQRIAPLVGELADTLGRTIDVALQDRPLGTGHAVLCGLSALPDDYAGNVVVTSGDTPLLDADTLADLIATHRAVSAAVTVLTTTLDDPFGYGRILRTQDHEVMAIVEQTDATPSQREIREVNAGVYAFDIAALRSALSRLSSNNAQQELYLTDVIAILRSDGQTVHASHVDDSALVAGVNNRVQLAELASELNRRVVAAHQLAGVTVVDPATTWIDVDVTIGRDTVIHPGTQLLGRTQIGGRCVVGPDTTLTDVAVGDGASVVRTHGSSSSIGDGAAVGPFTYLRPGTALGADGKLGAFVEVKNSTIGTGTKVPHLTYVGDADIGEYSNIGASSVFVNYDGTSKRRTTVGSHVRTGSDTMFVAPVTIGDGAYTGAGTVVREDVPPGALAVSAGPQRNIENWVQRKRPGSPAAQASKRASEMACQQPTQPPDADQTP

[4] = biological target: Induced myeloid leukemia cell differentiation protein Mcl-1 (Homo sapiens, UniProt Q07820); type: functional
Sequence of Induced myeloid leukemia cell differentiation protein Mcl-1 (Q07820 whole entry): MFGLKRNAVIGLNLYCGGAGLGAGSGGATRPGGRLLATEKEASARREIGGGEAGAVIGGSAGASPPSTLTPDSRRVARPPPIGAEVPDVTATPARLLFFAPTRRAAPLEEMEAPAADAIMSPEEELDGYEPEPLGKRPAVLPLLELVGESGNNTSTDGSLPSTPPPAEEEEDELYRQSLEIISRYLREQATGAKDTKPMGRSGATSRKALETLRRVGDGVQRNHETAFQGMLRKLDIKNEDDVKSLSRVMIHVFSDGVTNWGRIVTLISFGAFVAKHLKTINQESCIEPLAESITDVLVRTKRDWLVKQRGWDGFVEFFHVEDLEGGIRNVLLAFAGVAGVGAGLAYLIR

[5] = biological target: Nonstructural protein 1 (Influenza A virus, UniProt Q194T2); type: functional, Influenza A virus (A/California/07/2009(H1N1))
Sequence of Nonstructural protein 1 (Q194T2 whole entry): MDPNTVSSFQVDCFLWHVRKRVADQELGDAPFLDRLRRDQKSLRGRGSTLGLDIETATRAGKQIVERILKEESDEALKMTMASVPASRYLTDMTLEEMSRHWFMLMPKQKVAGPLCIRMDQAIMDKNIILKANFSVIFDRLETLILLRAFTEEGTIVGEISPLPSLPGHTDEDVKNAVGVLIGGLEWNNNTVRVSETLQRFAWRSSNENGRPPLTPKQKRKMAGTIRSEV

[6] = biological target: T2, High affinity choline transporter 1 (Homo sapiens, UniProt Q9GZV3); test: human choline transporter blockers, potency – cell-based, 5-point CRC, membrane potential dye, dose response (AID 504840); type: functional
T2 sequence (Q9GZV3 whole entry): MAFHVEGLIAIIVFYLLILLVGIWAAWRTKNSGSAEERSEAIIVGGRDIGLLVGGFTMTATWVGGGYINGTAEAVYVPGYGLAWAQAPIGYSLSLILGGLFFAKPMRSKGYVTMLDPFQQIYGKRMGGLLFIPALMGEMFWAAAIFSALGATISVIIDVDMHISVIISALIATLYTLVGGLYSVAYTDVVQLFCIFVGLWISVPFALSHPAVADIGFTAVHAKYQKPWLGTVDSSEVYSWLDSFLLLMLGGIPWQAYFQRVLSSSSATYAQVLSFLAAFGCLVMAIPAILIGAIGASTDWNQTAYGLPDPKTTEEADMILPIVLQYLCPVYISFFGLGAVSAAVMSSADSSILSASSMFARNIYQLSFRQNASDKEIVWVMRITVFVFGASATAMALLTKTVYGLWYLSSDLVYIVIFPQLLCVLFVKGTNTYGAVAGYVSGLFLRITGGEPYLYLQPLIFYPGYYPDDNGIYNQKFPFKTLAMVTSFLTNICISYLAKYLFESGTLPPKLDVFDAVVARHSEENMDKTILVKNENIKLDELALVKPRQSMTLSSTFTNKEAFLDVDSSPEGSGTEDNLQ

[7] = system: Vero; test: viability of Vero cells under compound – cytotoxicity control for flavivirus capping enzyme inhibitors (AID 588742); type: functional; details: Chlorocebus sabaeus
[8] = system: Vero; test: cells; type: functional; details: Chlorocebus sabaeus
[9] = biological target: Genome polyprotein (dengue virus type 2, UniProt P29990); test: flavivirus cap methylation enzyme inhibition – biochemical, confirmation dose response, primary screen (AID 588689); type: functional
Sequence of Genome polyprotein (P29990 2492-3391 limits assumed): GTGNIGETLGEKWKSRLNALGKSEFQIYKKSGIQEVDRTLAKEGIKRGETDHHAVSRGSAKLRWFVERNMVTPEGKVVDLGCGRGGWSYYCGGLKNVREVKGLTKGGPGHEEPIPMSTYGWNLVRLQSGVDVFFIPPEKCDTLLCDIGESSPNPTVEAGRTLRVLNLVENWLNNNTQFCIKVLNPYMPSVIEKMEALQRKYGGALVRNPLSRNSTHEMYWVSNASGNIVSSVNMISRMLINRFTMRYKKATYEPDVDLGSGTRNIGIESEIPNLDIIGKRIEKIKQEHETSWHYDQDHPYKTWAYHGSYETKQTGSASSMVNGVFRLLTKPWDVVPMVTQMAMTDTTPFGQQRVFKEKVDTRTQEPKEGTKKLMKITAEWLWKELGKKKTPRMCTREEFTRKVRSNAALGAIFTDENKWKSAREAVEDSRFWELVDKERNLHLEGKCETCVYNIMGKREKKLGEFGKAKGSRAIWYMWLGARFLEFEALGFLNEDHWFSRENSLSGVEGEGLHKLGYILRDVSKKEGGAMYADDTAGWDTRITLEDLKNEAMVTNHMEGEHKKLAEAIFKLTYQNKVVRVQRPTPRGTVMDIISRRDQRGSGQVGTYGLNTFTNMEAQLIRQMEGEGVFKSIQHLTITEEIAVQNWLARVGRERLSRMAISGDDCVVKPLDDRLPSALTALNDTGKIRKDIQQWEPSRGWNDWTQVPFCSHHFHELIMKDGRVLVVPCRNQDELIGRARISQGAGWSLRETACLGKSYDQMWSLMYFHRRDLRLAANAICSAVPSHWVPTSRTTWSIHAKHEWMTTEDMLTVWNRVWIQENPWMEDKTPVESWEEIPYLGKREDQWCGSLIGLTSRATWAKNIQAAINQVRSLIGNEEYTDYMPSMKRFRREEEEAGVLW

[10] = biological target: T3, Long-chain-fatty-acid--AMP ligase FadD28 (Mycobacterium tuberculosis, UniProt P9WQ59); test: Fluorescence polarization aasay to screen for inhibitors that compete for the binding of FadD28 to a bisubstrate Measured in Biochemical System Using Plate Reader - 2147-01_Inhibitor_Dose_CherryPick_Activity.; type: functional, Mycobacterium tuberculosis H37Rv
T3 sequence (P9WQ59 whole entry): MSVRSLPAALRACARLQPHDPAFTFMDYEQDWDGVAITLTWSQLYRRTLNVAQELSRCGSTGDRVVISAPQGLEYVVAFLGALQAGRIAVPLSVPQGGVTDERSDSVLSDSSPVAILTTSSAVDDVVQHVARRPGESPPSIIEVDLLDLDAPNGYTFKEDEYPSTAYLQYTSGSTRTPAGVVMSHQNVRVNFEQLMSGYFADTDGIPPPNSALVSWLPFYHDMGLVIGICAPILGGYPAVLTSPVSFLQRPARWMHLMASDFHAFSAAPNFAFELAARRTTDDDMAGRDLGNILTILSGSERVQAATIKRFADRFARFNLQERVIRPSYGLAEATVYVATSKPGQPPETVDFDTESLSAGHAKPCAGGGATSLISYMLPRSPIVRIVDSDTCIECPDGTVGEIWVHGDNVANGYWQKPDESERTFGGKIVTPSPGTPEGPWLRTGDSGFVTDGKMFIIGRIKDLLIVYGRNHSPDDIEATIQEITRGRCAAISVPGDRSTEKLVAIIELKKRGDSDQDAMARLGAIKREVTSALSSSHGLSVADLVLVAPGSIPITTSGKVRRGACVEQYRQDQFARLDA

[11] = glucagon-like peptide-1 release potency in STC-1, concentration-response, half-maximal inhibitory concentration in the STC-1 line (AID 1117345); type: functional, cell-based
[12] = Potency on glucagon-like peptide 1 release, dose-response in NCI-H716 cell line, half maximal inhibitory concentration (AID 1117344); type: functional, cell-based
[13] = viability loss in Vero cells – cytotoxicity control for Vif-APOBEC3G degradation inhibitor project, dose response (AID 1117358); type: functional; details: Vero
[14] = biological target: T4, Protein skinhead-1 (Caenorhabditis elegans, UniProt P34707); type: functional
T4 sequence (P34707 whole entry): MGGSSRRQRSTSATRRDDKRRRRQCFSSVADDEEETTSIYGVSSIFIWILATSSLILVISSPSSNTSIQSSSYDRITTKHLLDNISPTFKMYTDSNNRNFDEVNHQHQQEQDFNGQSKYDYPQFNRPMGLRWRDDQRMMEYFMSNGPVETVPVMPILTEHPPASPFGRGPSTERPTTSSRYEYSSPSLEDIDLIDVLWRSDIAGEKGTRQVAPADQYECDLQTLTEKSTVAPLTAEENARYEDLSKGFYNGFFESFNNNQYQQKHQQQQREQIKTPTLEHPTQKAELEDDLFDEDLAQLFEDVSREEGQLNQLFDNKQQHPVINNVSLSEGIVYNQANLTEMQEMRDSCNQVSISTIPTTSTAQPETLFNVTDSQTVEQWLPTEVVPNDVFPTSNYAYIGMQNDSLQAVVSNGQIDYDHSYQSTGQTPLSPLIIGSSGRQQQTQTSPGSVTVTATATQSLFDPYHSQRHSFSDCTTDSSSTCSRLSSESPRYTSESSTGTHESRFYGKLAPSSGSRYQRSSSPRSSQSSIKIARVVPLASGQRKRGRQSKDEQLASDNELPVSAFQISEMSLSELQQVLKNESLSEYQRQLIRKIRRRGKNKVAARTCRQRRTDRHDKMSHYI

[15] = viability loss in HeLa cells – cytotoxicity control for MgcRacGAP inhibitor project, dose response (AID 624300); type: functional
[16] = biological target: T5, Rac GTPase-activating protein 1 (Homo sapiens, UniProt Q9H0H5); test: blockers of MgcRacGAP-driven Rac1 GTP hydrolysis – biochemical, ADP Hunter fluorescence, primary and confirmatory, confirmation (AID 624330); type: functional
T5 sequence (Q9H0H5 whole entry): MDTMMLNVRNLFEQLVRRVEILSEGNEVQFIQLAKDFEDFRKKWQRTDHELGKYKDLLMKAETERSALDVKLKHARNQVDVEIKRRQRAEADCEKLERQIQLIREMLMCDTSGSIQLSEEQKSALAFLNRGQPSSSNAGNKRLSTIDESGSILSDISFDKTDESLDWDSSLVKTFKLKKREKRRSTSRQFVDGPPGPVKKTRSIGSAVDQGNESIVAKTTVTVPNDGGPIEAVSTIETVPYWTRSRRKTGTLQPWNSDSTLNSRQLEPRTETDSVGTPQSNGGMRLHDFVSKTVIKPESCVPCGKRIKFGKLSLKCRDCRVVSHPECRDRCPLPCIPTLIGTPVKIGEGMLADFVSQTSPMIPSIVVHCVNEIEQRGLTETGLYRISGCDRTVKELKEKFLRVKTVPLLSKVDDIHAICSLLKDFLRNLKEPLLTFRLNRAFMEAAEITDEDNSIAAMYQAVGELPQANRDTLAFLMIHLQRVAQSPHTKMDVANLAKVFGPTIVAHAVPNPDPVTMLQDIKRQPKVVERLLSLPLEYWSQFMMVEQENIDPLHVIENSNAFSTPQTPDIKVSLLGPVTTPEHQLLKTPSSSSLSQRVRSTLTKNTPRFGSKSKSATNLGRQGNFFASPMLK

[17] = biological target: Protein Tat (Human immunodeficiency virus type 1 group M subtype B (isolate HXB2)(HIV-1), UniProt P04608); type: functional;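 further: tat binding to TAR RNA read out by fluorescence polarization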
Sequence of Protein Tat (P04608 whole entry): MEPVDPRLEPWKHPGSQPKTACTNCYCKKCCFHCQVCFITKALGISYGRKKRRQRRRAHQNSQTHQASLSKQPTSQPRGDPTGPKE

[18] = viability loss in THP-1 monocytes – THP-1 cells, cytotoxicity control for Vif-APOBEC3G degradation inhibitor project, dose response (AID 1117359); type: functional; details: THP-1
[19] = biological target: Glutathione-S-transferase (Schistosoma japonicum, UniProt Q26513); test: GST-antibody interaction or FRET quenching – biochemical, TR-FRET, artefact control for Vif-APOBEC3G degradation inhibitor project, dose response (AID 1117362); type: functional
Sequence of Glutathione-S-transferase (Q26513 whole entry): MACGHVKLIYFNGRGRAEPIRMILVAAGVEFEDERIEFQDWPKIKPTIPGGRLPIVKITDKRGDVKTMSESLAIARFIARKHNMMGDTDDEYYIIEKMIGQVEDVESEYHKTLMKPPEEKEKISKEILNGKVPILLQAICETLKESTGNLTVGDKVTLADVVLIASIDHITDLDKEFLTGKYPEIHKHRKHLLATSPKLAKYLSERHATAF

Compound: COc1cc(/C=C2/C(=O)c3cccc([N+](=O)[O-])c3C2=O)c(Br)cc1O
- IC50 [1]: 5.94 µM (active)
- IC50 [2]: 13.9 µM (active)
- IC50 [3]: 60.9 µM (active)
- IC50 [4]: 1.39 µM (active)
- IC50 [5]: 20.9 µM (active)
- IC50 [6]: 9.13 µM (active)
- CC50 [7]: 34 µM (active)
- CC50 [8]: 16.4 µM (active)
- IC50 [9]: 7.44 µM (active)
- AC50 [10]: > 100 µM (inactive)

Compound: COc1cc2nc(N3CCN(C(=O)C4COc5ccccc5O4)CC3)nc(N)c2cc1OC (stereo not given) [DOXAZOSIN MESYLATE]
- IC50 [11]: 10.7 µM (inactive)
- IC50 [12]: > 40 µM (inactive)

Compound: O=C(Nc1cccc(C(F)(F)F)c1)c1cccnc1NCCc1ccccc1
- CC50 [13]: > 40 µM (active)

Compound: N=C1C=CC(=C(c2ccc(N)cc2)c2ccc(N)cc2)C=C1 [PARAROSANILINE]
- IC50 [5]: 6.87 µM (active)
- IC50 [14]: 13.4 µM (active)
- CC50 [15]: 50.3 µM (active)
- IC50 [16]: 98 µM (active)
- IC50 [17]: > 100 µM (active)
- CC50 [18]: 7.58 µM (active)
- IC50 [19]: 4.08 µM (active)
